In brackets after ≈: the same amount, converted by molar mass.
Assays:
Type in all cases: cell-based
Staph. aureus = assay: MIC by serial dilution on iso-sensitest agar, Staph. aureus; conditions: Staphylococcus aureus, 37° C., about 20 hours
Method: (§1) The minimum inhibitory concentrations (MIC) of the compounds according to the invention were determined by serial dilution methods on iso-sensitest agar (Oxoid). For each test substance, a number of agar plates were prepared which, each with a doubled dilution, contained decreasing concentrations of the active compound. The agar plates were inoculated using a multipoint inoculator (Denley). For inoculation, overnight cultures of the pathogens were used which had previously been diluted such that each inoculation point contained about 10^4 colony-forming particles. The inoculated agar plates were incubated at 37° C., and the bacterial growth was read off after about 20 hours. The MIC value (μg/ml) indicates the lowest active compound concentration at which no growth could be detected with the naked eye.

Staph. interm. = assay: MIC by serial dilution on iso-sensitest agar, Staph. interm.; conditions: strain ATCC 29663; 37° C., about 20 hours
Method: as §1

Staph. hyicus = assay: MIC by serial dilution on iso-sensitest agar, Staph. hyicus; conditions: Staphylococcus hyicus, 20 h, 37° C., about 20 hours
Method: as §1

[1] = strain 9621, actual clinical isolate
[2] = strain 9622, actual clinical isolate
[3] = strain 9637, actual clinical isolate
[4] = strain 9641, actual clinical isolate

Row | Structure (SMILES) | MIC (Staph. aureus; ATCC6538, strain ATCC 6538) | MIC (Staph. aureus; ATCC25923, strain ATCC 25923) | MIC (Staph. aureus; ATCC29213, strain ATCC 29213) | MIC (Staph. interm.) | MIC (Staph. hyicus; [1]) | MIC (Staph. hyicus; [2]) | MIC (Staph. hyicus; [3]) | MIC (Staph. hyicus; [4])
1 | CCC(C)C(=O)C(=O)NCCc1c[nH]c2ccccc12 (stereo not shown) [A, reference compound] | 0.25 µg/mL (≈ 0.918 µM) | 0.125 µg/mL (≈ 0.459 µM) | 0.125 µg/mL (≈ 0.459 µM) | 8 µg/mL (≈ 29.4 µM) | 1 µg/mL (≈ 3.67 µM) | 0.5 µg/mL (≈ 1.84 µM) | 0.25 µg/mL (≈ 0.918 µM) | 0.25 µg/mL (≈ 0.918 µM)
2 | CCC(C)C(=O)C(=O)NCCc1cn(C)c2ccccc12 (stereo not shown) [Compound 1] | 0.015 µg/mL (≈ 0.0524 µM) | 0.015 µg/mL (≈ 0.0524 µM) | 0.015 µg/mL (≈ 0.0524 µM) | 2 µg/mL (≈ 6.98 µM) | 0.06 µg/mL (≈ 0.21 µM) | 0.06 µg/mL (≈ 0.21 µM) | 0.015 µg/mL (≈ 0.0524 µM) | 0.015 µg/mL (≈ 0.0524 µM)
3 | CC(C)CC(=O)C(=O)NCCc1c[nH]c2ccccc12 [B, reference compound] | 0.125 µg/mL (≈ 0.459 µM) | 0.25 µg/mL (≈ 0.918 µM) | 0.25 µg/mL (≈ 0.918 µM) | 2 µg/mL (≈ 7.34 µM) | 0.25 µg/mL (≈ 0.918 µM) | 0.03 µg/mL (≈ 0.11 µM) | 0.25 µg/mL (≈ 0.918 µM) | 0.25 µg/mL (≈ 0.918 µM)
4 | CCC(C)C(=O)C(=O)NCCc1cn(Cc2ccccc2)c2ccccc12 (stereo not shown) [Compound 6] | 0.125 µg/mL (≈ 0.345 µM) | 0.125 µg/mL (≈ 0.345 µM) | 0.125 µg/mL (≈ 0.345 µM) | 8 µg/mL (≈ 22.1 µM) | 1 µg/mL (≈ 2.76 µM) | 1 µg/mL (≈ 2.76 µM) | 0.125 µg/mL (≈ 0.345 µM) | 0.125 µg/mL (≈ 0.345 µM)
5 | CC(C)CC(=O)C(=O)NCCc1cn(-c2ccccc2)c2ccccc12 [Compound 5] | 0.03 µg/mL (≈ 0.0861 µM) | 0.06 µg/mL (≈ 0.172 µM) | 0.06 µg/mL (≈ 0.172 µM) | 1 µg/mL (≈ 2.87 µM) | 0.06 µg/mL (≈ 0.172 µM) | 0.015 µg/mL (≈ 0.043 µM) | 0.06 µg/mL (≈ 0.172 µM) | 0.06 µg/mL (≈ 0.172 µM)
6 | CCC(C)C(=O)C(=O)NCCc1cn(C(C)C)c2ccccc12 (stereo not shown) [Compound 3] | 0.03 µg/mL (≈ 0.0954 µM) | 0.03 µg/mL (≈ 0.0954 µM) | 0.03 µg/mL (≈ 0.0954 µM) | 4 µg/mL (≈ 12.7 µM) | 1 µg/mL (≈ 3.18 µM) | 0.5 µg/mL (≈ 1.59 µM) | 0.03 µg/mL (≈ 0.0954 µM) | 0.03 µg/mL (≈ 0.0954 µM)
7 | CC(C)CC(=O)C(=O)NCCc1cn(C(C)C)c2ccccc12 [Compound 4] | 0.125 µg/mL (≈ 0.398 µM) | 0.06 µg/mL (≈ 0.191 µM) | 0.25 µg/mL (≈ 0.795 µM) | 2 µg/mL (≈ 6.36 µM) | 0.06 µg/mL (≈ 0.191 µM) | 0.25 µg/mL (≈ 0.795 µM) | 0.125 µg/mL (≈ 0.398 µM) | 0.125 µg/mL (≈ 0.398 µM)
8 | CC(C)CC(=O)C(=O)NCCc1cn(C)c2ccccc12 [Compound 2] | 0.03 µg/mL (≈ 0.105 µM) | 0.03 µg/mL (≈ 0.105 µM) | 0.03 µg/mL (≈ 0.105 µM) | 2 µg/mL (≈ 6.98 µM) | 0.03 µg/mL (≈ 0.105 µM) | 0.03 µg/mL (≈ 0.105 µM) | 0.03 µg/mL (≈ 0.105 µM) | 0.03 µg/mL (≈ 0.105 µM)

From patent publication US6255335A, “Substituted 2-oxo-alkanoic acid-[2-(indol-3-yl)-ethyl] amides” (Bayer Aktiengesellschaft, priority 1998, dated 2001)
